Measurements reported in PubChem BioAssay (NCI).
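Following 48 hours of exposure in 96-well plates, responses at five concentrations were used to interpolate endpoints linearly. TGI marks complete inhibition of growth.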

Columns and labels:
Assay in all cases: NCI anticancer screen, dose series, 48 h
SNB-75 CNS = tested on: SNB-75 CNS
NCI-H23 lung = tested on: NCI-H23 lung
IGROV1 ovarian = tested on: IGROV1 ovarian
HCT-15 colon = tested on: HCT-15 colon
786-0 renal = tested on: 786-0 renal
RXF 393 renal = tested on: RXF 393 renal
SK-MEL-2 melanoma = tested on: SK-MEL-2 melanoma
A549 NSCLC = tested on: A549 NSCLC
RPMI-8226 leukemia = tested on: RPMI-8226 leukemia
LOX IMVI melanoma = tested on: LOX IMVI melanoma
MDA-N = tested on: MDA-N
MDA-MB-231 breast = tested on: MDA-MB-231 breast
OVCAR-3 ovarian = tested on: OVCAR-3 ovarian
SNB-19 CNS = tested on: SNB-19 CNS

CN(C)CCOc1ccc(-c2c(Oc3ccc(Cl)cc3)c(=O)oc3ccccc23)cc1
TGI (SNB-75 CNS): 25.3 µM | TGI (NCI-H23 lung): 34.8 µM | TGI (IGROV1 ovarian): 19.2 µM | TGI (HCT-15 colon): 22.8 µM | TGI (786-0 renal): > 27.9 µM | TGI (RXF 393 renal): > 48.3 µM | TGI (SK-MEL-2 melanoma): 22.6 µM | TGI (A549 NSCLC): > 32.5 µM | TGI (RPMI-8226 leukemia): 43.6 µM | TGI (LOX IMVI melanoma): > 35.7 µM | TGI (MDA-N): 13.5 µM | TGI (MDA-MB-231 breast): 22.4 µM | TGI (OVCAR-3 ovarian): 34.3 µM | TGI (SNB-19 CNS): > 46 µM

CC1CC[C@]2(C(=O)O)CCC3(C)C(=C2[C@H]1C)C=CC1[C@@]2(C)CC[C@H](O)C(C)(C)C2CC[C@]13C (some centres undefined)
TGI (SNB-75 CNS): 73.1 µM | TGI (NCI-H23 lung): > 100 µM | TGI (IGROV1 ovarian): 98.2 µM | TGI (HCT-15 colon): > 100 µM | TGI (786-0 renal): > 100 µM | TGI (RXF 393 renal): 29 µM | TGI (SK-MEL-2 melanoma): > 100 µM | TGI (A549 NSCLC): 62.6 µM | TGI (RPMI-8226 leukemia): > 100 µM | TGI (LOX IMVI melanoma): > 100 µM | TGI (MDA-N): > 100 µM | TGI (MDA-MB-231 breast): 70 µM | TGI (OVCAR-3 ovarian): 73.1 µM | TGI (SNB-19 CNS): > 100 µM

c1ccc2c(c1)SC1Sc3ccccc3[S+]21 (centres undefined)
TGI (SNB-75 CNS): > 100 µM | TGI (NCI-H23 lung): 37.4 µM | TGI (IGROV1 ovarian): 50.5 µM | TGI (HCT-15 colon): > 79.5 µM | TGI (786-0 renal): > 62.4 µM | TGI (RXF 393 renal): > 73.1 µM | TGI (SK-MEL-2 melanoma): > 100 µM | TGI (A549 NSCLC): > 100 µM | TGI (RPMI-8226 leukemia): 49.9 µM | TGI (LOX IMVI melanoma): 45.6 µM | TGI (MDA-N): 53.6 µM | TGI (MDA-MB-231 breast): 80.3 µM | TGI (OVCAR-3 ovarian): 46 µM | TGI (SNB-19 CNS): > 100 µM

CCOC(=O)/C(=C\c1ccc(CO)o1)P(=O)(OCC)OCC
TGI (SNB-75 CNS): > 100 µM | TGI (NCI-H23 lung): 57.8 µM | TGI (IGROV1 ovarian): > 100 µM | TGI (HCT-15 colon): 33.2 µM | TGI (786-0 renal): 45.3 µM | TGI (RXF 393 renal): 71.1 µM | TGI (SK-MEL-2 melanoma): 92.2 µM | TGI (A549 NSCLC): > 100 µM | TGI (RPMI-8226 leukemia): 91.4 µM | TGI (LOX IMVI melanoma): 41.3 µM | TGI (MDA-N): 47.8 µM | TGI (MDA-MB-231 breast): 93.5 µM | TGI (OVCAR-3 ovarian): 59.9 µM | TGI (SNB-19 CNS): > 100 µM

Cc1cc2ccccc2c[n+]1CC(=O)CC([O-])(C(F)(F)F)C(F)(F)F
TGI (SNB-75 CNS): > 100 µM | TGI (NCI-H23 lung): > 100 µM | TGI (IGROV1 ovarian): > 100 µM | TGI (HCT-15 colon): > 100 µM | TGI (786-0 renal): > 100 µM | TGI (RXF 393 renal): > 100 µM | TGI (SK-MEL-2 melanoma): > 100 µM | TGI (A549 NSCLC): > 100 µM | TGI (RPMI-8226 leukemia): > 100 µM | TGI (LOX IMVI melanoma): > 100 µM | TGI (MDA-N): > 100 µM | TGI (MDA-MB-231 breast): > 100 µM | TGI (OVCAR-3 ovarian): > 100 µM | TGI (SNB-19 CNS): > 100 µM

Cc1nn(-c2ccccc2)c(C)c1/C=N/NC(=O)c1sc(=S)n(-c2ccccc2)c1N
TGI (SNB-75 CNS): 3.98 µM | TGI (NCI-H23 lung): > 100 µM | TGI (IGROV1 ovarian): 1.79 µM | TGI (HCT-15 colon): > 100 µM | TGI (786-0 renal): > 100 µM | TGI (RXF 393 renal): 4.36 µM | TGI (SK-MEL-2 melanoma): > 100 µM | TGI (A549 NSCLC): 34.8 µM | TGI (RPMI-8226 leukemia): 31.2 µM | TGI (LOX IMVI melanoma): 5.12 µM | TGI (MDA-N): > 100 µM | TGI (MDA-MB-231 breast): 7.78 µM | TGI (OVCAR-3 ovarian): > 100 µM | TGI (SNB-19 CNS): > 100 µM

CN(C)CCCOC(=O)C(O)(Cc1ccccc1)C1CC1 (centres undefined)
TGI (SNB-75 CNS): > 100 µM | TGI (NCI-H23 lung): > 100 µM | TGI (IGROV1 ovarian): > 100 µM | TGI (HCT-15 colon): > 100 µM | TGI (786-0 renal): > 100 µM | TGI (RXF 393 renal): > 100 µM | TGI (SK-MEL-2 melanoma): > 100 µM | TGI (A549 NSCLC): > 100 µM | TGI (RPMI-8226 leukemia): > 100 µM | TGI (LOX IMVI melanoma): > 100 µM | TGI (MDA-N): > 100 µM | TGI (MDA-MB-231 breast): > 100 µM | TGI (OVCAR-3 ovarian): > 100 µM | TGI (SNB-19 CNS): > 100 µM

COC1CCC(OC2CC(C3(C)CCC4(CC(O)C(C)C(C(C)/C=C(\C)C(=O)C(C)CC(C)C(=O)O)O4)O3)OC3(OC(C4OC(O)(CO)C(C)CC4C)CC3C)C2C)OC1C (centres undefined)
TGI (SNB-75 CNS): 0.568 µM | TGI (NCI-H23 lung): 1.13 µM | TGI (IGROV1 ovarian): 16.2 µM | TGI (HCT-15 colon): 1.95 µM | TGI (786-0 renal): 1.21 µM | TGI (RXF 393 renal): 0.225 µM | TGI (SK-MEL-2 melanoma): 0.576 µM | TGI (A549 NSCLC): 1.97 µM | TGI (RPMI-8226 leukemia): < 0.0386 µM | TGI (LOX IMVI melanoma): 0.941 µM | TGI (MDA-N): 0.549 µM | TGI (MDA-MB-231 breast): 0.517 µM | TGI (OVCAR-3 ovarian): 2.58 µM | TGI (SNB-19 CNS): 0.355 µM

COC(=O)/C=C1/OC(c2ccccc2)=C(Cl)C1=O
TGI (SNB-75 CNS): 48.5 µM | TGI (NCI-H23 lung): 39.4 µM | TGI (IGROV1 ovarian): 55.8 µM | TGI (HCT-15 colon): 25.4 µM | TGI (786-0 renal): 33.7 µM | TGI (RXF 393 renal): 35.9 µM | TGI (SK-MEL-2 melanoma): 45.8 µM | TGI (A549 NSCLC): 69.4 µM | TGI (RPMI-8226 leukemia): 22.5 µM | TGI (LOX IMVI melanoma): 26.8 µM | TGI (MDA-N): 43 µM | TGI (MDA-MB-231 breast): 36 µM | TGI (OVCAR-3 ovarian): 33.8 µM | TGI (SNB-19 CNS): > 66.9 µM

COc1cc2[nH]c(-c3ccccc3)cc(=O)c2cc1OC
TGI (SNB-75 CNS): > 87.1 µM | TGI (NCI-H23 lung): > 84.6 µM | TGI (IGROV1 ovarian): > 100 µM | TGI (HCT-15 colon): 97.9 µM | TGI (786-0 renal): > 100 µM | TGI (RXF 393 renal): > 72.7 µM | TGI (SK-MEL-2 melanoma): > 100 µM | TGI (A549 NSCLC): > 69.8 µM | TGI (RPMI-8226 leukemia): > 100 µM | TGI (LOX IMVI melanoma): > 100 µM | TGI (MDA-N): 6.44 µM | TGI (MDA-MB-231 breast): > 87.3 µM | TGI (OVCAR-3 ovarian): > 100 µM | TGI (SNB-19 CNS): > 100 µM

CC1=Nn2c(nc3sc4c(c3c2=O)CCCC4)SC1
TGI (SNB-75 CNS): > 100 µM | TGI (NCI-H23 lung): > 100 µM | TGI (IGROV1 ovarian): > 100 µM | TGI (HCT-15 colon): > 100 µM | TGI (786-0 renal): > 100 µM | TGI (RXF 393 renal): > 100 µM | TGI (SK-MEL-2 melanoma): > 100 µM | TGI (A549 NSCLC): > 100 µM | TGI (RPMI-8226 leukemia): > 100 µM | TGI (LOX IMVI melanoma): 53.7 µM | TGI (MDA-N): > 31.6 µM | TGI (MDA-MB-231 breast): > 100 µM | TGI (OVCAR-3 ovarian): > 100 µM | TGI (SNB-19 CNS): > 100 µM
